Results taken from ChEMBL document CHEMBL1131844, “Substituted indoles as potent and orally active 5-lipoxygenase activating protein (FLAP) inhibitors” (Bioorg Med Chem Lett, 1999).

How the values were obtained:
[1] = biological target: T1, Arachidonate 5-lipoxygenase-activating protein (Homo sapiens, UniProt P20292); assay: Measuring the affinity of leukotriene synthesis inhibitor for 5-lipoxygenase activating protein by using [125I]L-691831 as radioligand.
T1 sequence (P20292 whole entry): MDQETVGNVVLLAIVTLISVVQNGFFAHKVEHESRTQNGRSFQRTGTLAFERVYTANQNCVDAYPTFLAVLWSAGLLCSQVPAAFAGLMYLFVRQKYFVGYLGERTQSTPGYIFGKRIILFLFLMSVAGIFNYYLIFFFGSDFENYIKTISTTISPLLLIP

Homo sapiens [2] = species on record: Homo sapiens; assay: The drug dependent inhibition of LTB4 biosynthesis in human whole blood (HWB) activated with the ionophore A-23187; assay type: functional, organism-based
Homo sapiens [3] = species on record: Homo sapiens; assay: In vitro inhibition of LTB4 biosynthesis in Ca++ ionophore activated human polymorphonuclear (HPMN) leukocytes.; assay type: functional
[4] = plasma level at 2 hr after administration of the compound; assay type: ADME, organism-based; conditions: rat
[5] = Bioavailability in rat; assay type: ADME, organism-based; conditions: in vivo
Rattus norvegicus [6] = assay: In vivo inhibitory activity against LTB4 biosynthesis by rat pleurisy model (3h pre treatment time periods); assay type: functional
[7] = biological target: T1, Arachidonate 5-lipoxygenase-activating protein; assay: Measuring the affinity of leukotriene synthesis inhibitor for 5-Lipoxygenase activating protein (FLAP) by using [125I]L-691831 as radioligand.
Rattus norvegicus [8] = assay: Compound was evaluated in vivo for its functional activity(in percent) in a hyperreactive rat model of dyspnea; design: concentration or dose not given beside the values
[9] = Plasma level at 2 hr after administration of the compound; assay type: ADME, organism-based; conditions: rat
Canis familiaris [10] = assay: Inhibition of ex vivo urinary leukotriene E4 (LTE4) excretion from A-23,187-challenged dog after intravenous infusion of 2.5 ug/kg/min; assay type: functional; conditions: Canis lupus familiaris, Urine
Canis familiaris [11] = assay: Inhibition of ex vivo leukotriene B4 (LTB4) in whole blood of A-23,187-challenged dog after intravenous infusion of 2.5 ug/kg/min; assay type: functional; conditions: Canis lupus familiaris
Rattus norvegicus [12] = assay: In vivo inhibitory activity against LTB4 biosynthesis by rat pleurisy model (2h pre treatment time period); assay type: functional
Rattus norvegicus [13] = assay: In vivo inhibitory activity against LTB4 biosynthesis by rat pleurisy model (6 pre treatment time periods); assay type: functional
Rattus norvegicus [14] = assay: In vivo inhibitory activity against LTB4 biosynthesis by rat pleurisy model (1 pre treatment time periods); assay type: functional
Rattus norvegicus [15] = assay: In vivo inhibitory activity against LTB4 biosynthesis by rat pleurisy model (6h pre treatment time periods); assay type: functional
Rattus norvegicus [16] = assay: In vivo inhibitory activity against LTB4 biosynthesis by rat pleurisy model (v3h pre treatment time periods); assay type: functional
Rattus norvegicus [17] = assay: In vivo inhibitory activity against LTB4 biosynthesis by rat pleurisy model (3 pre treatment time periods); assay type: functional

Row | IC50 [1] [nM] | IC50 (Homo sapiens [2]; Homo sapiens, Blood) [nM] | IC50 (Homo sapiens [3]; Homo sapiens) [nM] | SMILES | also measured
1 | 350 | > 3000 | > 52 | CCCC(Oc1ccc2c(c1)c(SC(C)(C)C)c(CC(C)(C)C(=O)O)n2Cc1ccc(Cl)cc1)c1ccc2ccccc2n1 (stereo unspecified) | 
2 | 7 | 400 | 4 | CC(C)(C)Sc1c(CC(C)(C)C(=O)O)n(Cc2ccc(Cl)cc2)c2ccc(OCc3cnccn3)cc12 | 
3 | 48 |  |  | CC(C)(C)Sc1c(CC(C)(C)C(=O)O)n(Cc2ccc(Cl)cc2)c2ccc(OCc3cnc4ccccc4c3)cc12 | 
4 | 14 | > 3000 | 7 | CC(C)(C)Sc1c(CC(C)(C)C(=O)O)n(Cc2ccc(Cl)cc2)c2ccc(OCc3ccc4cc(F)c(F)cc4n3)cc12 | 
5 |  |  | 4 | CC(C)(C)Sc1c(CC(C)(C)C(=O)O)n(Cc2ccc(Cl)cc2)c2ccc(OCc3ccc4ccccc4n3)cc12 [QUIFLAPON] | concentration at 2 h [9]: 2.5 µM; bioavailability [5]: 24%; inhibition in vivo at 2.5 µg/kg/min (Canis familiaris [10]): 71%; inhibition in vivo at 2.5 µg/kg/min (Canis familiaris [11]): 94%; ED50 (Rattus norvegicus [12]): 0.51 mg/kg; ED50 (Rattus norvegicus [13]): 0.15 mg/kg; Functional activity in dyspnea model (Rattus norvegicus [8]): 51%
6 | 7 |  |  | CC(Oc1ccc2c(c1)c(SC(C)(C)C)c(CC(C)(C)C(=O)O)n2Cc1ccc(Cl)cc1)c1ccc2ccccc2n1 (single isomer, unassigned; (-)) | concentration at 2 h [4]: 4.2 µM; bioavailability [5]: 48%; IC50 (Homo sapiens [2]): 362 nM; ED50 (Rattus norvegicus [14]): 1 mg/kg; IC50 (Homo sapiens [3]): 5 nM; Functional activity in dyspnea model (Rattus norvegicus [8]): 45%
7 | 16 | > 3000 | 4 | CC(C)(C)Sc1c(CC(C)(C)C(=O)O)n(Cc2ccc(Cl)cc2)c2ccc(CCc3ccc4ccccc4n3)cc12 | 
8 | 40 | > 3000 | 6 | Cc1nc2ccc(COc3ccc4c(c3)c(SC(C)(C)C)c(CC(C)(C)C(=O)O)n4Cc3ccc(Cl)cc3)cc2s1 | 
9 | 85 |  |  | CC(C)(C)Sc1c(CC(C)(C)C(=O)O)n(Cc2ccc(Cl)cc2)c2cccc(OCc3ccc4ccccc4n3)c12 | 
10 | 73 | 670 | 8 | COc1ccc2nc(COc3ccc4c(c3)c(SC(C)(C)C)c(CC(C)(C)C(=O)O)n4Cc3ccc(Cl)cc3)sc2c1 | 
11 | 11 | > 3000 | 12 | CC(C)(C)Sc1c(CC(C)(C)C(=O)O)n(Cc2ccc(Cl)cc2)c2ccc(/C=C/c3ccc4ccccc4n3)cc12 | 
12 | 70 | > 3000 | 4 | CC(C)(C)Sc1c(CC(C)(C)C(=O)O)n(Cc2ccc(Cl)cc2)c2ccc(OCc3cccs3)cc12 | 

Further lines, the molecule ahead of its results:

Row | SMILES | IC50 [1] [nM] | IC50 (Homo sapiens [2]; Homo sapiens, Blood) [nM] | IC50 (Homo sapiens [3]; Homo sapiens) [nM] | also measured
13 | CC(C)(C)Sc1c(CC(C)(C)C(=O)O)n(Cc2ccc(Cl)cc2)c2ccc(OCc3nc4cc(C(F)(F)F)ccc4s3)cc12 | 186 | > 3000 | 22 | 
14 | C[C@@H](COc1ccc2c(c1)c(SC(C)(C)C)c(CC(C)(C)C(=O)O)n2Cc1ccc(Cl)cc1)c1ccccn1 |  | 280 | 2 | concentration at 2 h [4]: 13 µM; bioavailability [5]: 60%; ED50 (Rattus norvegicus [6]): 0.16 mg/kg; IC50 [7]: 6 nM; Functional activity in dyspnea model (Rattus norvegicus [8]): 64%
15 | CC(Oc1ccc2c(c1)c(SC(C)(C)C)c(CC(C)(C)C(=O)O)n2Cc1ccc(Cl)cc1)c1ccc2ccccc2n1 (racemic) | 16 |  |  | IC50 (Homo sapiens [2]): 803 nM; IC50 (Homo sapiens [3]): 9 nM
16 | CC(C)c1csc(COc2ccc3c(c2)c(SC(C)(C)C)c(CC(C)(C)C(=O)O)n3Cc2ccc(Cl)cc2)n1 | 13 | > 3000 | 3 | 
17 | CC(C)(C)Sc1c(CC(C)(C)C(=O)O)n(Cc2ccc(Cl)cc2)c2ccc(OCc3ccc4cc(F)ccc4n3)cc12 | 2 | 880 | 2 | 
18 | CC(COc1ccc2c(c1)c(SC(C)(C)C)c(CC(C)(C)C(=O)O)n2Cc1ccc(Cl)cc1)c1ccccn1 (stereo unspecified) | 8 | 270 | 4 | 
19 | C[C@H](COc1ccc2c(c1)c(SC(C)(C)C)c(CC(C)(C)C(=O)O)n2Cc1ccc(Cl)cc1)c1ccccn1 | 12 | 470 | 3 | 
20 | CC(C)(C)Sc1c(CC(C)(C)C(=O)O)n(Cc2ccc(Cl)cc2)c2ccc(OCc3ccccn3)cc12 | 3 | 130 | 2 | concentration at 2 h [4]: 9 µM; bioavailability [5]: 48%; ED50 (Rattus norvegicus [6]): 0.3 mg/kg; ED50 (Rattus norvegicus [15]): 0.09 mg/kg; Functional activity in dyspnea model (Rattus norvegicus [8]): 77%
21 | CC(C)(C)Sc1c(CC(C)(C)C(=O)O)n(Cc2ccc(Cl)cc2)c2ccc(OCc3ccncc3)cc12 | 48 | > 3000 | 6 | 
22 | CC(C)(C)Sc1c(CC(C)(C)C(=O)O)n(Cc2ccc(Cl)cc2)c2ccc(COCc3ccc4ccccc4n3)cc12 | 26 | > 3000 | > 18 | 
23 | CC(C)(C)Sc1c(CC(C)(C)C(=O)O)n(Cc2ccc(Cl)cc2)c2cc(OCc3ccc4ccccc4n3)ccc12 | 428 |  |  | 
24 | Cc1nc(COc2ccc3c(c2)c(SC(C)(C)C)c(CC(C)(C)C(=O)O)n3Cc2ccc(Cl)cc2)cs1 | 3 | 130 | 2 | concentration at 2 h [4]: 8 µM; bioavailability [5]: 98%; ED50 (Rattus norvegicus [6]): 0.15 mg/kg; Functional activity in dyspnea model (Rattus norvegicus [8]): 48%
25 | CC(C)(C)Sc1c(CC(C)(C)C(=O)O)n(Cc2ccc(Cl)cc2)c2ccc(OCc3cccnc3)cc12 | 59 | > 3000 | 8 | 
26 | CC(C)(C)Sc1c(CC(C)(C)C(=O)O)n(Cc2ccc(Cl)cc2)c2ccc(OCc3ccc4cnccc4n3)cc12 | 2 | 980 | 3 | 
27 | CC(C)(C)Sc1c(CC(C)(C)C(=O)O)n(Cc2ccc(Cl)cc2)c2c(OCc3ccc4ccccc4n3)cccc12 | 1950 |  |  | 
28 | CC(C)(C)Sc1c(CC(C)(C)C(=O)O)n(Cc2ccc(Cl)cc2)c2ccc(OCc3nc4ccccc4o3)cc12 | 5 | 2500 | < 7 | 
29 | CC(C)(C)Sc1c(CC(C)(C)C(=O)O)n(Cc2ccc(Cl)cc2)c2ccc(OCc3ccc4c(n3)CCCC4)cc12 | 8 | 2890 | 3 | 
30 | CC(C)(C)Sc1c(CC(C)(C)C(=O)O)n(Cc2ccc(Cl)cc2)c2ccc(OCc3cccc(Cl)n3)cc12 | 8 | 410 | 3 | concentration at 2 h [4]: 3.5 µM; bioavailability [5]: 37%; Functional activity in dyspnea model (Rattus norvegicus [8]): 34%
31 | CC(C)(C)Sc1c(CC(C)(C)C(=O)O)n(Cc2ccc(Cl)cc2)c2ccc(OCc3ccnc4ccccc34)cc12 | 62 |  |  | 
32 | CC(C)(C)Sc1c(CC(C)(C)C(=O)O)n(Cc2ccc(Cl)cc2)c2ccc(OCc3cc4ccccc4cn3)cc12 | 10 | > 3000 | 3 | 
33 | CC(C)(C)Sc1c(CC(C)(C)C(=O)O)n(Cc2ccc(Cl)cc2)c2ccc(OCc3cscn3)cc12 | 5 | 270 | 3 | concentration at 2 h [4]: 8 µM; bioavailability [5]: 98%; ED50 (Rattus norvegicus [16]): 0.12 mg/kg; Functional activity in dyspnea model (Rattus norvegicus [8]): 61%
34 | CC(C)(C)Sc1c(CC(C)(C)C(=O)O)n(Cc2ccc(Cl)cc2)c2ccc(OCc3ccc4cccnc4n3)cc12 | 2 | > 3000 | 6 | 
35 | CC(Oc1ccc2c(c1)c(SC(C)(C)C)c(CC(C)(C)C(=O)O)n2Cc1ccc(Cl)cc1)c1ccc2ccccc2n1 (stereo in doubt; 6) | 116 |  |  | IC50 (Homo sapiens [2]): > 3000 nM; IC50 (Homo sapiens [3]): 32 nM
36 | CC(C)(C)Sc1c(CC(C)(C)C(=O)O)n(Cc2ccc(Cl)cc2)c2ccc(OCc3nc4ccccc4s3)cc12 | 2 | 260 | 3 | concentration at 2 h [4]: 6 µM; bioavailability [5]: 81%; ED50 (Rattus norvegicus [17]): 0.85 mg/kg; Functional activity in dyspnea model (Rattus norvegicus [8]): 45%
